Laboratory results reported in US20240116939A1, “CHIRAL OR RACEMIC PYRIMIDINE-FUSED DIAZEPINONE DERIVATIVES, PREPARATION METHOD, AND APPLICATION THEREOF” (SUN YAT-SEN UNIVERSITY, priority 2021, published 2024).

Assays:
PC12 cells [1] = experiment: MTT cell viability of corticosterone (CORT)-induced PC12 cells (in vitro depression model); details: for Cell viability (%): PC12 cells pretreated with 600 μM corticosterone 24 h; for Cell viability (%) / viability at 0.625 µM / Culture time needed to exert effect on cell survival: drug 0.625 uM; for Cell viability (%) / viability at 0.625 µM: 24 h culture, average of three independent experiments; for Cell viability (%) / viability at 0.625 µM / Effect on death rate of cells caused by CORT (cell survival rate): MTT; for viability at 0.625 µM: PC-12, read-out: Cell viability (%), PC12 cells pretreated with 600 μM corticosterone 24 h; for Effect on death rate of cells caused by CORT (cell survival rate): 0.625-20 uM at 12 h, 0.625 uM at 12, 24, 48 h, A and B of FIG. 2; for Culture time needed to exert effect on cell survival: B of FIG. 2
Procedure: PC12 cells are purchased from Procell Life Science & Technology Co., Ltd. (Wuhan, China). All cell culture reagents are purchased from Life Technologies (Grand Island, Nebraska, USA). Cells are cultured in Dulbecco's modified Eagle's medium (Gibco, USA) including 10% fetal calf serum (Gibco, USA) at 37° C. in an incubator including 5% CO2.
Corticosterone (CORT)-induced PC12 cells are usually used to establish the depression model in vitro.
Cell viability is measured by using MTT [3-(4,5-dimethyl-2-thiazolyl)-2,5-diphenyl-2H-tetrazolium bromide].

PC12 cells [2] = experiment: Hoechst and PI staining of PC12 cell apoptosis; assay type: cell-based; details: drug 1.0 uM, 48 hours
Procedure: PC12 cell apoptosis is detected by Hoechst and PI staining. Hoechst can bind to cell nucleus of living cells, while PI (propidium iodide) can bind to the nucleuses of dead cells. The PC12 cells are plated in 12-well plates, and after being treated with drugs for 48 hours, the PC12 cells are stained with the nuclear dye Hoechst. The PC12 cells are washed twice with PBS and continued to be incubated with 10 mg/L Hoechst in the incubator for 20 min, For PI staining, the PC12 cells are incubated with a working solution including PI (final concentration 1 μg/mL) at room temperature for 10 min […] The PC12 cells are observed and photographed by a fluorescence microscope (Zeiss, Germany), and the results are shown in FIGS. 2 and 3. Blue fluorescence (white background) represents living cells, and red fluorescence (black background) represents dead cells.

GR = experiment: Western blotting of GR in CORT-treated PC12 cells; assay type: cell-based; details: Western blot; 0.625 uM; A and B of FIG. 3
Procedure: (§1) PC12 cells are lysed in RIPA lysis solution including 1% phenylmethylsulfonyl fluoride (PMSF) on ice for 30 minutes, the supernatant solution is collected and centrifuged, and the protein concentration of the supernatant solution is measured by a BCA assay kit (Beyotime, Shanghai). Protein samples are loaded onto 10% SDS-polyacrylamide gel electrophoresis and then further transferred to PVDF membrane (Millipore, MA, USA). The PVDF membrane is blocked with 5% non-fat milk and then incubated with a single primary antibody at 4° C. overnight. After washing with Tris-buffered saline containing Tween-20 (0.1%) (TBST), the PVDF membrane is incubated with secondary antibodies at room temperature. The PVDF membrane is analyzed by ECL reagents (Beyotime, Shanghai) and a BIO-RAD ChemiDoc XRS system. Protein band intensity is performed by Image J software (The National Institutes of Health, Bethesda, MD, USA).

NF-κB = experiment: Western blotting of NF-κB in CORT-treated PC12 cells; assay type: cell-based; details: Western blot; 0.625 uM; A and B of FIG. 3
Procedure: as §1

cofilin-1 = experiment: Western blotting of cofilin-1 in CORT-treated PC12 cells; assay type: cell-based; details: Western blot; 0.625 uM; A and B of FIG. 3
Procedure: as §1

Compound	PC12 cell death / apoptosis caused by corticosterone (blue and red fluorescence number) (PC12 cells [2])	viability at 0.625 µM (PC12 cells [1]; Rattus norvegicus)	melting point	further results
C=C[C@@H]1CN(Cc2ccccc2)C(=O)c2cnc(N3CCOCC3)nc2N1c1ccccc1 [(R)-I-1, (R)-6-benzyl-2-morpholino-9-phenyl-8-vinyl-6,7,8,9-tetrahydro-5H-pyrimido [4,5-e][1,4]diazapine-5-one]	–	–	–	Cell viability (%) (PC12 cells [1]): 82.8 ± 2.5%
C=C[C@@H]1CN(Cc2ccccc2)C(=O)c2cnc(N3CCOCC3)nc2N1Cc1ccccc1 [(R)-I-8, (R)-6,9-dibenzyl-2-morpholinyl-8-vinyl-6,7,8,9-tetrahydro-5H-pyrimido[4,5-e][1.4]diazepine-5-one]	–	–	–	Cell viability (%) (PC12 cells [1]): 82.0 ± 2.0%
C=C[C@@H]1CN(Cc2ccccc2)C(=O)c2cnc(OC)nc2N1c1ccccc1 [(R)-I-9, (R)-6-benzyl-2methoxy-9-phenyl-8-vinyl-6,7,8,9-tetrahydro-5H-pyrimido[4,5-e][1,4]diazepin-5-one]	can reverse the massive apoptosis of the PC12 cells caused by corticosterone	85.4 ± 2.9%	–	Expression of GR (GR): promote the expression of GR; Overexpression of NF-κB (NF-κB): inhibit the overexpression; Overexpression of cofilin-1 (cofilin-1): inhibit the overexpression
C=C[C@@H]1CN(Cc2ccccc2)C(=O)c2cnc(-c3ccccc3)nc2N1c1ccccc1 [(R)-I-13, (R)-6-benzyl-2,9-diphenyl-8-vinyl-6,7,8,9-tetrahydro-5H-pyrimido[4,5-e][1,4]diazepine-5-one]	–	81.9 ± 4.5%	212.7 to 213.6 °C	–
C=C[C@@H]1CN(Cc2ccccc2)C(=O)c2cnc(Nc3ccccc3)nc2N1c1ccccc1 [(R)-I-18, (R)-6-benzyl-9-phenyl-2-anilino-8-vinyl-6,7,8,9-tetrahydro-5H-pyrimido[4,5-e][1,4]diazepine-5-one]	–	75.2 ± 4.4%	232.1 to 232.3 °C	–
C=C[C@H]1CN(Cc2ccccc2)C(=O)c2cnc(N3CCOCC3)nc2N1CCC [(S)-I-5, (S)-6-benzyl-2-morpholino-9-propyl-8-vinyl-6,7,8,9-tetrahydro-5H-pyrimido[4,5-e][1,4]diazepine-5-one]	–	89.4 ± 2.9%	–	–
C=C[C@H]1CN(Cc2ccccc2)C(=O)c2cnc(C)nc2N1c1ccccc1 [(S)-I-10, (S)-6-benzyl-2-methyl-9-phenyl-8-vinyl-6,7,8,9-tetrahydro-5H-pyrimido[4,5-e][1,4]diazepin-5-one]	higher number of blue fluorescence than (R)-I-9	97.8 ± 3.4%	–	–
C=C[C@H]1CN(Cc2ccccc2)C(=O)c2cnc(N3CCN(C)CC3)nc2N1c1ccccc1 [(S)-I-11, (S)-6-benzyl-2-(4-methyl-1-piperazinyl)-9-phenyl-8-vinyl-6,7,8,9-tetrahydro-5H-pyrimido[4,5-e]diazepine-5-one]	can reduce cell death	–	–	Effect on death rate of cells caused by CORT (cell survival rate) (PC12 cells [1]): can effectively reduce the death rate of cells caused by CORT; Culture time needed to exert effect on cell survival (PC12 cells [1]): 12 h
C=C[C@H]1CN(Cc2ccccc2)C(=O)c2cnc(N3CCCC3)nc2N1c1ccccc1 [(S)-I-12, (S)6-benzyl-9-phenyl-2-(1-tetrahydropyrrolyl)-8-vinyl-6,7,8,9-tetrahydro-5H-pyrimido[4,5-e][1,4]diazepin-5-one]	–	98.6 ± 3.1%	153.8 to 154.3 °C	–
C=C[C@H]1CN(Cc2ccccc2)C(=O)c2cnc(-c3cccc4ccccc34)nc2N1c1ccccc1 [(S)-I-14, (S)-6-benzyl-2-(1-naphthyl)-9-phenyl-8-vinyl-6,7,8,9-tetrahydro-5H-pyrimido[4,5-e][1,4]diazepin-5-one]	–	88.1 ± 4.7%	227.2 to 227.4 °C	Survival rate of PC12 cells, comparison of chiral configurations (PC12 cells [1]; 0.625 uM, B, C and D of FIG. 4): can increase the survival rate better than their corresponding racemates
C=C[C@H]1CN(Cc2ccccc2)C(=O)c2cnc(-c3cnccc3OC)nc2N1c1ccccc1 [(S)-I-17, (S)-6-benzyl-2-(4-methoxy-3-pyridyl)-9-phenyl-8-vinyl-6,7,8,9-tetrahydro-5H-pyrimido[4,5-e][1,4]diazepin-5-one]	can reverse the massive apoptosis of the PC12 cells caused by corticosterone	96.9 ± 2.7%	–	Expression of GR (GR): promote the expression of GR; Overexpression of NF-κB (NF-κB): inhibit the overexpression; Overexpression of cofilin-1 (cofilin-1): inhibit the overexpression
C[C@]12C[C@H](O)[C@H]3[C@@H](CCC4=CC(=O)CC[C@@]43C)[C@@H]1CC[C@@H]2C(=O)CO [CORT, corticosterone, reference compound]	–	–	–	Cell viability (%) with corticosterone alone (PC12 cells [1]; PC12 cells, 600 μM corticosterone, 24 hours, no drug (model group)): 60.5 ± 3.6%; viability at 600 µM (PC12 cells [1]; Rattus norvegicus, PC-12, 24 h, read-out: Cell viability (%) with corticosterone alone, PC12 cells, 600 μM corticosterone, 24 hours, no drug (model group)): 60%
C=C[C@@H]1CN(Cc2ccccc2)C(=O)c2cnc(-c3ccco3)nc2N1c1ccccc1 [Compound I-16, (R)-6-benzyl-2-(2-furyl)-9-phenyl-8-vinyl-6,7,8,9-tetrahydro-5H-pyrimido[4,5-e][1,4]diazepin-5-one]	–	–	178.5 to 178.6 °C	–
CNCCC(Oc1ccc(C(F)(F)F)cc1)c1ccccc1 (stereo not drawn) [fluoxetine, reference compound]	can reduce cell death	76.8 ± 6.4%	–	Expression of GR (GR): promote the expression of GR; Overexpression of cofilin-1 (cofilin-1): inhibit the overexpression; Effect on death rate of cells caused by CORT (cell survival rate) (PC12 cells [1]): can effectively reduce the death rate of cells caused by CORT; Culture time needed to exert effect on cell survival (PC12 cells [1]): 48 h
